Source: patent publication US20260232715A1, “TREATMENT OF PANCREATIC CANCER” (CAN-FITE BIOPHARMA LTD., priority 2023, published 2026)

Columns and labels:
[1] = system: BxPC-3 cells; test: BxPC-3 subcutaneous tumor growth in nude mice; type: in vivo, nude Balb/C mice; conditions: 10 μg/kg twice daily for 35 days (Day 22 to Day 57), by Day 57 from tumor inoculation
Method: Male nude Balb/C mice (Harlan Laboratories, Jerusalem, Israel), aged 2 months (mean weight, 25 g), received a subcutaneous flank injection of BxPC-3 cells (2.5×10^6). The mice were maintained on a standardized pelleted diet and supplied with tap water. […] Tumor width (W) and length (L) were measured twice weekly with a caliber, and tumor size was calculated (W^2×L/2).

[2] = system: BxPC-3 cells; test: 3H-thymidine incorporation assay (cell growth); type: cell-based; conditions: Homo sapiens, 48 h, read-out: percentage of growth inhibition of BxPC-3 cells
Method: Cells (15×10^4/mL) were maintained in RPMI medium supplemented with 10% fetal bovine serum (FBS), […], 100 U/ml penicillin, and […] streptomycin solution at 37° C. in a 5% CO2 incubator. Cells were transferred to a freshly prepared medium twice weekly. 3H-thymidine incorporation assay was used to evaluate cell growth. BxPC-3 cells (5,000 cells/well) were incubated (37° C.) with CF102 (namodenoson) in different concentrations: 0.01 nM, 0.1 nM and 1 nM in a 96-well plate for 48 h. Each well was pulsed with 1 μCi 3H-thymidine for the last 24 h. The cells were harvested, and the 3H-thymidine uptake was determined in an LKB liquid scintillation counter (LKB).

[3] = system: BxPC-3 cells; test: Presto Blue cell growth inhibition assay; type: cell-based, human
Method: Cells (15×10^4/mL) were maintained in RPMI medium supplemented with 10% fetal bovine serum (FBS), […], 100 U/ml penicillin, and […] streptomycin solution at 37° C. in a 5% CO2 incubator. Cells were transferred to a freshly prepared medium twice weekly. For the tumor cell growth experiments, BxPC-3 cells (15×10^4/mL) were incubated in the culture medium with control, 5, 10, or 20 nM namodenoson in 96-well microtiter plates for 24 h at 37° C. in a 5% CO2 incubator, after which cell growth inhibition was determined using the Presto Blue assay (Thermo Fisher Scientific, Waltham, MA, USA) used as per the manufacturer's instructions. Experiments under the same conditions with 20 nM namodenoson were also conducted with and without 20 nM of the A3AR antagonist MRS1523 (diluted to the final concentration in RPMI medium).

[4] = system: BxPC-3 cells; test: Western blot analysis of regulatory protein expression; type: cell-based, human; conditions: 20 nM namodenoson, 24 h, vs. control
Method: Western blot analyses were performed using the same culture conditions as the Presto Blue experiments in 10 cm plates with 20 nM namodenoson or control. After incubation for 24 h at 37° C. in a 5% CO2 incubator, the cell samples were rinsed with ice-cold PBS and transferred to ice-cold RIPA buffer with 1× protease and phosphatase inhibitor cocktail for 20 min. Cell debris was removed using centrifugation at 4° C. for 10 min, at 7500×g. The supernatant was utilized for the Western blot analyses. Protein concentrations were determined using the NanoDrop assay (ThermoFisher Scientific, Waltham, MA, USA). Equal amounts of the sample (50 μg) were separated by SDS-PAGE, using […] (Schleicher & Schuell, Keene, NH, USA). Membranes were blocked with 1% bovine serum albumin and incubated with the relevant primary antibody (dilution 1:1000) for 24 h at 4° C. Blots were then washed and incubated with the secondary antibody for 1 h at room temperature. Bands were recorded using BCIP/NBT color development kit (Promega, Madison, WI, USA).

**Q.** Which results are given for `CNC(=O)[C@H]1O[C@@H](n2cnc3c(NCc4cccc(I)c4)nc(Cl)nc32)[C@H](O)[C@@H]1O` [namodenoson, 2-chloro-N^6-(3-iodobenzyl)-adenosine-5′-N-methyl-uronamide]?
**A.** inhibition of tumor growth vs. control [1]: 67.7%+15.2; inhibition at 10 pM ([2]; 0.01 nM namodenoson): 27.9%; inhibition at 0.0001 µM ([2]; 0.1 nM namodenoson): 53.7%; inhibition at 0.001 µM ([2]; 1 nM namodenoson): 67.4%; cell growth, % of the control ([3]; 20 nM namodenoson alone, 24 h): 45.0%+4.2 % of the control; cell growth, % of the control ([3]; 20 nM namodenoson plus 20 nM MRS1523, 24 h): 81.1%+6.3 % of the control; inhibition at 0.005 µM ([3]; Homo sapiens, BXPC-3, 5 nM, 24 h, mean±SE): 49.7%; inhibition at 0.01 µM ([3]; Homo sapiens, BXPC-3, 10 nM, 24 h, mean±SE): 66.3%; inhibition at 0.02 µM ([3]; Homo sapiens, BXPC-3, 20 nM, 24 h, mean±SE): 82.7%; A3AR protein expression level [4]: decrease; Bad expression [4]: upregulated; Bax expression [4]: upregulated; GSK-3β expression [4]: upregulation; NF-κB expression [4]: downregulated; PI3K expression [4]: downregulated; cyclin D1 expression level [4]: decrease; p-Akt expression [4]: downregulated; pERK 1/2 expression level [4]: decrease; pMEK 1/2 expression level [4]: decrease; pRaf expression level [4]: decrease; β-catenin expression level [4]: decrease

**Q.** `CCCOC(=O)c1c(-c2ccccc2)nc(CC)c(C(=O)SCC)c1CCC` [MRS1523, reference compound] was tested. Which “cell growth, % of the control” value ([3]; 20 nM MRS1523 alone, 24 h) did it give?
**A.** 100.8%+11.1 % of the control
